Experimental data published in article PMC5927802, “Pharmacokinetics, safety, and tolerability of the 2‐ and 3‐direct‐acting antiviral combination of AL‐335, odalasvir, and simeprevir in healthy subjects” (Pharmacology Research & Perspectives, 2018).
Entries after “also recorded” stand apart in the source; their conditions may differ. Where two headings read alike, the source gives them in different places.

Legend:
OATP1B1/1B3 = conditions: cited from earlier work
[1] = tested on: breast cancer resistance protein (BCRP); conditions: not told; cited from earlier work
[2] = Plasma pharmacokinetics, Phase I open‐label two‐group fixed‐sequence drug‐drug interaction study; conditions: for C min / concentration at 23.9 h / concentration at 24 h / Cmax: mean (SD); for T last / Tmax: median (range); for AUC0‐24 h LSM ratio / C min LSM ratio / Cmax LSM ratio: point estimate (90% CI); for concentration at 23.9 h / concentration at 24 h / Cmax / Tmax: human, plasma, oral; for concentration at 23.9 h / concentration at 24 h: C last; for Tmax: T max
Text: This was an open‐label, two‐group, fixed‐sequence study conducted at a single study center in Rennes, France (Biotrial). A two‐group, fixed‐sequence study design was chosen as this was deemed to be the most efficient way to evaluate the effect of simeprevir with/without odalasvir on AL‐335; and vice versa (Group 1) and the effect of odalasvir with/without simeprevir on AL‐335; and vice versa (Group 2). Thus, this study design had the potential to gather both 2‐way and 3‐way DDIs. For both groups, the study consisted of a screening period, a study period, and two follow‐up visits. The study was authorized by the French National Agency for the Safety of Medicine and Health Products (ANSM) and was approved by an Independent Ethics Committee (Comité de Protection des Personnes [CPP] Ouest VI, Brest, France; Reference CPP Ouest 6–CPP 888/MS1), and was conducted in accordance with the principles of the Declaration of Helsinki and International Conference on Harmonization. All subjects provided written informed consent to participate. Drug and molecular target nomenclature in this manuscript conforms to the British Journal of Pharmacology's Concise Guide to Pharmacology 2017/18.19
Subjects in Group 1 received simeprevir 150 mg QD on days 4‐23, odalasvir 150 mg (loading dose) on day 14, odalasvir 50 mg QD on days 15‐23, and AL‐335 800 mg QD on days 1‐3, 11‐13, and 21‐23. Subjects in Group 2 received odalasvir 150 mg (loading dose) on day 4, odalasvir 50 mg QD on days 5‐23, simeprevir 150 mg QD on days 14‐23, and AL‐335 800 mg QD on days 1‐3, 11‐13, and 21‐23. […] A minimum of 10 days was considered sufficient for both odalasvir and simeprevir to reach steady‐state.
Subjects were assigned sequentially to Group 1 then to Group 2 after confirming eligibility.
As this was an […] pharmacokinetic study, blood samples for pharmacokinetic analysis were collected predose and at 0.25, 0.5, 1, 2, 3, 4, 6, 8, 10, 12, and 24 hours postdose on days 3, 13, and 23 for determination of AL‐335, ALS‐022399, and ALS‐022227 plasma concentrations (Groups 1 and 2). For simeprevir, blood samples for determination of simeprevir plasma concentrations were taken at the same time points but on days 10, 13, 20, and 23 (Group 1) or days 20 and 23 (Group 2). Blood samples for the determination of odalasvir plasma concentrations were collected predose and at 1, 3, 4, 5, 6, 7, 8, 9, 10, 12, 16, and 24 hours postdose on days 20 and 23 (Group 1) or days 10, 13, 20, and 23 (Group 2), with two further samples also collected on the day 7 and day 28 follow‐up assessments (both groups).
Plasma concentrations of AL‐335, ALS‐022399, ALS‐022227, odalasvir, and simeprevir were determined using validated liquid chromatography‐tandem mass spectrometry methods. Dichlorvos solution was added to blood samples from AL‐335‐treated subjects to stabilize AL‐335 and its metabolites (25 μL of 5 mmol/L dichlorvos into 1 mL blood). The lower limit of quantification was 1 ng/mL, 2 ng/mL, and 5 ng/mL for AL‐335, ALS‐022399, and ALS‐022227, respectively, 1 ng/mL for odalasvir, and 2 ng/mL for simeprevir.
Pharmacokinetic analyses were performed on all subjects with available profiles who received at least one dose of study drug without any protocol deviation affecting pharmacokinetic evaluation. […] Secondary parameters were last observed plasma concentration, apparent elimination half‐life, time of the maximum observed plasma concentration (T max), and time to last measurable plasma concentration (T last).

CYP3A = tested on: CYP3A; parameters: method as in PMID 26353895; conditions: cited from earlier work
CYP1A2 = tested on: CYP1A2; parameters: method as in PMID 26353895; conditions: cited from earlier work
[3] = Group 1 Day 13, SMV + AL‐335 versus SMV alone
[4] = Group 1 Day 20, SMV + ODV versus SMV alone
[5] = Group 1 Day 23, SMV + AL‐335 + ODV versus SMV alone
[6] = Group 1 Day 23, SMV + AL‐335 + ODV
[7] = Group 2 Day 23, SMV + AL‐335 + ODV

Question: Which “OATP1B1/3 substrate / inhibitor status” value (OATP1B1/1B3) does the source give for COc1ccc2c(O[C@@H]3C[C@H]4C(=O)N[C@]5(C(=O)NS(=O)(=O)C6CC6)C[C@H]5/C=C\CCCCN(C)C(=O)[C@@H]4C3)cc(-c3nc(C(C)C)cs3)nc2c1C [simeprevir] here?
Answer: Its value is “clinically confirmed OATP1B1 inhibitor”.

Question: And the “OATP1B1/3 substrate / inhibitor status” value (OATP1B1/1B3; listed as Simeprevir)?
Answer: Its value is “substrate and inhibitor”.

Question: What about the “BCRP substrate / inhibitor status” value [1] of the same molecule?
Answer: The value was “substrate and inhibitor”.

Question: What about the “effect of AL‐335 on pharmacokinetics” value ([2]; AL‐335 800 mg QD coadministered) of the same molecule?
Answer: Its value is “no effect; also recorded: did not alter; also recorded: no impact”.

Question: And the C min ([2]; Group 1 Day 10, SMV alone)?
Answer: The C min was 833 (856) ng/mL.

Question: What about the T last ([2]; Group 1 Day 10, SMV alone) of the same molecule?
Answer: Its T last is 23.9 (23.9‐24.0) h.

Question: What about the C min ([2]; Group 1 Day 13, SMV + AL‐335) of the same molecule?
Answer: The C min was 857 (1129) ng/mL.

Question: And the T last ([2]; Group 1 Day 13, SMV + AL‐335)?
Answer: The T last was 23.9 (23.9‐24.0) h.

Question: What about the “AUC0‐24 h LSM ratio” value [2, 3] of the same molecule?
Answer: Its value is 0.93 (0.83‐1.05).

Question: What about the “C min LSM ratio” value [2, 3] of the same molecule?
Answer: The value was 0.88 (0.76‐1.02).

Question: And the “Cmax LSM ratio” value [2, 3]?
Answer: Its value is 0.89 (0.79‐1.00).

Question: And the “AUC0‐24 h LSM ratio” value [2, 4]?
Answer: The value was 1.76 (1.53‐2.01).

Question: What about the “C min LSM ratio” value [2, 4] of the same molecule?
Answer: The value was 1.41 (1.01‐1.99).

Question: And the “Cmax LSM ratio” value [2, 4]?
Answer: The value was 1.66 (1.36‐2.01).

Question: And the C min ([2]; Group 1 Day 20, SMV + ODV)?
Answer: The C min was 1446 (2064) ng/mL.

Question: What about the T last ([2]; Group 1 Day 20, SMV + ODV) of the same molecule?
Answer: Its T last is 23.9 (23.9‐24.0) h.

Question: And the “AUC0‐24 h LSM ratio” value [2, 5]?
Answer: Its value is 1.60 (1.38‐1.85).

Question: And the “C min LSM ratio” value [2, 5]?
Answer: Its value is 1.82 (1.52‐2.19).

Question: And the “Cmax LSM ratio” value [2, 5]?
Answer: The value was 1.43 (1.23‐1.66).

Question: What about the C min [2, 6] of the same molecule?
Answer: The C min was 1910 (2441) ng/mL.

Question: And the T last [2, 6]?
Answer: The T last was 24.0 (24.0‐24.0) h.

Question: And the C min ([2]; Group 2 Day 20, SMV + ODV)?
Answer: The C min was 1274 (1035) ng/mL.

Question: What about the T last ([2]; Group 2 Day 20, SMV + ODV) of the same molecule?
Answer: Its T last is 23.9 (23.8‐24.1) h.

Question: What about the C min [2, 7] of the same molecule?
Answer: Its C min is 1847 (2313) ng/mL.

Question: What about the T last [2, 7] of the same molecule?
Answer: Its T last is 24.0 (24.0‐24.1) h.

Question: What about the concentration at 23.9 h ([2]; 150 mg, Group 1 Day 10, SMV alone) of the same molecule?
Answer: The concentration at 23.9 h was 981 ng/mL.

Question: What about the concentration at 23.9 h ([2]; Group 1 Day 13, SMV + AL‐335) of the same molecule?
Answer: Its concentration at 23.9 h is 1020 ng/mL.

Question: What about the concentration at 23.9 h ([2]; Group 1 Day 20, SMV + ODV) of the same molecule?
Answer: Its concentration at 23.9 h is 2340 ng/mL.

Question: And the concentration at 24 h [2, 6]?
Answer: Its concentration at 24 h is 2390 ng/mL.

Question: What about the concentration at 23.9 h ([2]; Group 2 Day 20, SMV + ODV) of the same molecule?
Answer: Its concentration at 23.9 h is 2140 ng/mL.

Question: What about the concentration at 24 h [2, 7] of the same molecule?
Answer: The concentration at 24 h was 2590 ng/mL.

Question: And the Cmax ([2]; Group 1 Day 10, SMV alone)?
Answer: Its Cmax is 2960 ng/mL.

Question: What about the Cmax ([2]; Group 1 Day 13, SMV + AL‐335) of the same molecule?
Answer: Its Cmax is 2760 ng/mL.

Question: What about the Cmax ([2]; Group 1 Day 20, SMV + ODV) of the same molecule?
Answer: The Cmax was 5220 ng/mL.

Question: And the Cmax [2, 6]?
Answer: The Cmax was 4740 ng/mL.

Question: What about the Cmax ([2]; Group 2 Day 20, SMV + ODV) of the same molecule?
Answer: The Cmax was 4530 ng/mL.

Question: And the Cmax [2, 7]?
Answer: Its Cmax is 4950 ng/mL.

Question: And the Tmax ([2]; Group 1 Day 10, SMV alone)?
Answer: Its Tmax is 6 h.

Question: What about the Tmax ([2]; Group 1 Day 13, SMV + AL‐335) of the same molecule?
Answer: Its Tmax is 6 h.

Question: And the Tmax ([2]; Group 1 Day 20, SMV + ODV)?
Answer: Its Tmax is 6 h.

Question: And the Tmax [2, 6]?
Answer: Its Tmax is 6 h.

Question: What about the Tmax ([2]; Group 2 Day 20, SMV + ODV) of the same molecule?
Answer: Its Tmax is 6 h.

Question: And the Tmax [2, 7]?
Answer: The Tmax was 8 h.

Question: And the “difference in T max” value ([2]; simeprevir coadministered with odalasvir)?
Answer: Its value is “No clinically relevant difference”.

Question: And the CYP3A inhibition (CYP3A)?
Answer: The CYP3A inhibition was “mild inhibitor of intestinal (not hepatic) CYP3A”.

Question: And the CYP1A2 inhibition (CYP1A2)?
Answer: Its CYP1A2 inhibition is “mild but not clinically relevant inhibitor”.
